Results taken from patent US5776959A, “Anticonvulsant and anxiolytic lactam and thiolactam derivatives” (priority 1995, dated 1998).

Assays:
sedation in mice = conditions: 100 mg/kg; cited from earlier work
[1] = Rotorod Test for Toxicity (neurotoxicity); format: in vivo, mouse; conditions: mouse, in vivo, mice, ip, 30 min
Experimental: (§1) Rotorod Test for Toxicity
(§2) This test is used in mice to assess neurotoxicity. Mice were placed on a 1 in. diameter rod, which rotates at 6 rpm, and tested for maintenance of their equilibrium for 10 min. All mice were pre-tested before a test substance is given. Test compounds are dissolved in 30% polyethylene glycol and given by intraperitoneal (ip) injections in a volume of 0.01 mL/g of body weight. […] This test also measures sedative effect of the compound tested. […] 21, 1985.

[2] = tested on: pentylenetetrazol (PTZ) seizures in mice; assay: Pentylenetetrazol Seizure Threshold Test (PTZ); format: in vivo, mouse (female CF-1); conditions: Mus musculus, 0.5 h, ip, 30 min before pentylenetetrazol 85 mg/kg ip, read-out: Convulsant Challenge ED50, PTZ
Experimental: Pentylenetetrazol Seizure Threshold Test (PTZ)
Anticonvulsant screening was accomplished by methods based on those of Swinyard and Woodhead using female CF-1 strain mice. […] The animals were placed in isolation cages and observed for the next 30 minutes for the presence or absence of a seizure. A threshold convulsion is defined as one episode of clonic spasms that persists for at least a 5-sec period.

[3] = tested on: maximal electroshock (MES) seizures in mice; assay: Maximal Electroshock Seizure Test (MES); format: in vivo; conditions: Mus musculus, 0.5 h, ip, 30 min before electroshock 50 mA 0.2 sec, read-out: Convulsant Challenge ED50, MES
Experimental: Maximal Electroshock Seizure Test (MES)
Test compounds were dissolved in 30% polyethylene glycol and given by intraperitoneal (ip) injections in a volume of 0.01 mL/g of body weight. […] Corneal electrodes were applied to the eyes, and an electrical stimulus consisting of a 60-Hz alternating current of 50 mA was delivered for 0.2 sec. The animals were held by hand and released at the time of stimulation for observation of the seizure. Abolition of the hindleg tonic extension component was taken as the endpoint for this test.

[4] = Convulsant activity (observation of seizures in injected mice); conditions: mouse, in vivo, read-out: Convulsive Activity CD50
Experimental: Convulsant activity of test compounds is assessed by monitoring injected mice by monitoring seizures by observing for the onset of myoclonic twitches, generalized clonic seizures and tonic seizures.

convulsant seizures = conditions: in vivo; cited from earlier work
[5] = tested on: anxiety in mice (plus-maze); assay: Anxiolytic plus-maze test; format: in vivo, mouse (male NIH Swiss); conditions: for Time spent on Plus-Maze Open Arms (% of Control): mice, ip, 30 min, 5 min test
Description: A modification of the plus-maze test (Lister R G (1987) "The use of a plus-maze to measure anxiety in the mouse" Psychopharmacology, 92, 180-185.) was used to measure the anxiolytic activity of the compounds of this invention in mice. The plus-maze apparatus used in the test consisted of four 30 cm×5 cm arms, two of which were enclosed by 16 cm high walls while the other two were unwalled. The four arms radiated out from a 5×5 cm central platform. The entire maze was elevated 34 cm on legs. The floor parts of the maze were made of wood painted black. The walls were clear plexiglass.
Male mice of the NIH Swiss strain are used in the test which is carried out in a room with no distractions. Test compounds were dissolved in 30% polyethylene glycol and given by intraperitoneal (ip) injections in a volume of 0.01 mL/g of body weight. […] During each 5 minute test, the number of entries to open arms and closed arms and the amount of time spent on each were recorded. A mouse has entered an arm when all four feet are on the arm. Each mouse was used only once. The anxiolytic dose of a test compound is that dose which causes a significant increase in the amount of time the test mouse spends in the open arms of the plus-maze in comparison to the amount of time a control mouse not receiving a test compound spends in the open arms of the maze.

GABAA receptor = assay: Potentiation of GABA currents in cultured rat hippocampal neurons (GABAA receptor electrophysiology test, whole-cell patch clamp); format: cell-based, rat (Sprague-Dawley)
Experimental: Hippocampal Cell Culture Methods
Under halothane anaesthesia, 1 day old female Sprague-Dawley rats were sacrificed by rapid decapitation and the hippocampi were dissected, minced and incubated in 3 mL of Leibovitz's L-15 containing 1 mg/mL papain and 0.2 mg/mL bovine serum albumin (BSA) for 20 min. at 37° C. The papain solution was removed and the hippocampi were triturated with pasteur pipettes in growth medium. The resulting suspension was centrifuged through 2 mL of medium containing 10 mg/mL trypsin inhibitor and 10 mg/mL BSA. The cells were resuspended into growth medium and plated, 2.5×10^5 cells/dish, on a monolayer of cortical glial cells in 35 mm plastic culture dishes. The culture dishes were pretreated with poly-L-lysine followed by plating of glial cells harvested from the cortices of 2-6 day postnatal rats four days prior to neuron plating. […]
Medium in the culture dishes was replaced with an extracellular solution containing: 140 mM NaCl, 3 mM KCl, 10 mM HEPES, 5 mm MgCl2, and 5.5 mM glucose. Neurons were recorded using the whole cell configuration of the patch clamp technique, (Hamil P O, Marty A, Neher E, Sakmann B, Sakmann J F (1981) "Improved patch-clamp techniques for high resolution current recordings from cells and cell-free membrane patches" Pfluegers Arch., 391, 85-100.) and the neuronal membrane was clamped to a potential of 130 mV. […]

neurotoxicity in mice = assay: Rotorod Test for Toxicity (neurotoxicity); format: in vivo, mouse; conditions: ip, 30 min
Experimental: as §1, §2

Compound | TD50 at 0.5 h [1] [mg/kg] | ED50 [2] [mg/kg] | ED50 [3] [mg/kg] | other results
CCC1(CC)CCCNC1=O [3,3-Diethyl-2-piperidinone] | 177 | 39 | 56 | sedative activity reported in literature (sedation in mice): weak sedative activity
CC1CCCNC1=O (stereo not drawn) [3-Methyl-2-Piperidinone, reference compound] | > 600 | > 600 | > 600 | 
CCC1CCCNC1=O (stereo not drawn) [3-Ethyl-2-Piperidinone, reference compound] | 382 | 339 |  | 
CCC1(CC)CC(C)(C)NC1=O [3,3-Diethyl-5,5-dimethyl-2-pyrrolidinone] |  |  |  | CD50 (convulsant dose, 50%) [4]: 75 mg/kg
CC1(C)CCNC1=O [3,3-Dimethyl-2-pyrrolidinone, 3,3-dimethyl-2-pyrrolidinone, reference compound] | 900 | 708 | > 600 | anticonvulsant activity reported in literature (convulsant seizures): no anticonvulsant activity
O=C1NCCCC1Cc1ccccc1 (stereo not drawn) [3-Phenylmethyl-2-piperidinone, 3-phenylmethyl-2-piperidinone] | 294 | 85 | 42 | 
CC1(Cc2ccccc2)CCCNC1=O (stereo not drawn) [3-Methyl-3-phenylmethyl-2-piperidinone, 3-methyl-3-phenylmethyl-2-piperidinone] | 131 | 56 | 49 | 
CCC1CC(C)(C)NC1=O (stereo not drawn) [3-Ethyl-5,5-dimethyl-2-pyrrolidinone] |  |  |  | CD50 (convulsant dose, 50%) [4]: 106 mg/kg
CC1(C)CCC(=O)N1 [5,5-Dimethyl-2-pyrrolidinone] |  |  |  | CD50 (convulsant dose, 50%) [4]: 387 mg/kg
CC1(C)CCSC1=O [α,α-dimethyl-y-thiobutyrolactone] |  | > 500 |  | 
O=C1CCCCN1 [2-Piperidinone, reference compound] | > 600 | > 600 |  | 
CCC1(C)CCN(C)C1=O (stereo not drawn) [1,3-Dimethyl-3-ethyl-2-pyrrolidinone] | 520 | 259 |  | 
CCC1(C)CNC(=O)C1 (stereo not drawn) [4-Ethyl-4-Methyl-2-pyrrolidinone, 4-ethyl-4-methyl-2-pyrrolidinone, reference compound] | > 300 | 327 | > 300 | anticonvulsant activity reported in literature (convulsant seizures): much less active
CCC1(CC)CCNC1=O [3,3-Diethyl-2-pyrrolidinone] |  | 46 | 174 | anxiolytic activity ([5]; compared to α-ethyl-α-methyl-γ-thiobutyrolactone, Table 3): significantly stronger anxiolytic activity; Time spent on Plus-Maze Open Arms (% of Control) ([5]; dose 100 mg/kg): 179%; Time spent on Plus-Maze Open Arms (% of Control) ([5]; dose 175 mg/kg): 253%; % Potentiation Relative to Control (N) (GABAA receptor; compound 1 mM, 3 μM GABA, mean ± SEM, percent of control response (100%)): 274 ± 64%; enhancement of GABA-mediated chloride ion currents (GABAA receptor; cultured rat hippocampal neurons): more effectively than the previously described α-ethyl-α-methyl-γ-thiobutyrolactone; Toxicity TD50 (neurotoxicity in mice): 260 mg/kg
CCC1(Cc2ccccc2)CCCNC1=O (stereo not drawn) [3-Ethyl-3-phenylmethyl-2-piperidinone, 3-ethyl-3-phenylmethyl-2-piperidinone] | 102 | 61 | 79 | 
O=C1NCCC1Cc1ccccc1 (stereo not drawn) [3-Phenylmethyl-2-pyrrolidinone, 3-phenylmethyl-2-pyrrolidinone] |  | 71 | 41 | Toxicity TD50 (neurotoxicity in mice): 144 mg/kg
CC1CCNC1=O (stereo not drawn) [3-Methyl-2-pyrrolidinone, reference compound] | ~900 | > 900 | > 750 | 
CC1(C)CNC(=O)C1(C)C [3,3,4,4-Tetramethyl-2-pyrrolidinone] |  |  |  | CD50 (convulsant dose, 50%) [4]: 32 mg/kg
CC1(C)CNC(=O)C1 [4,4-Dimethyl-2-pyrrolidinone, reference compound] | > 600 | 600 |  | 
O=C1CCCN1 [2-Pyrrolidinone, reference compound] |  | > 900 | > 600 | Toxicity TD50 (neurotoxicity in mice): > 900 mg/kg
CCC1(C)CCCNC1=O (stereo not drawn) [3-Ethyl-3-Methyl-2-Piperidinone, 3-ethyl-3-methyl-2-piperidinone] | 382 | 162 | 198 | 
